Assay results as given in patent US20100280084A1, “Cyp1B1 Genotype” (Government of the US, as represented by the Secret ary, …, priority 2005, published 2010).

Assays:
[1] = tested on: transfected Chinese hamster ovary cells; conditions: reversible by chemical inhibition (references 2, 3); cited from earlier work
[2] = Docetaxel clearance as a function of CYP1B1*3 genotype in 23 patients; conditions: human, in vivo, P=0.39
Method: To exclude the possibility that the observed decreased survival time for subjects carrying the CYP1B1*3/*3 variant was the result of altered exposure to docetaxel, the pharmacokinetic data generated in a previous study (15) in 23 patients treated with docetaxel as a function of CYP1B1*3 genotype was analyzed.

CYP1B1 [3] = molecular target: T1, CYP1B1 (Homo sapiens, UniProt Q16678); conditions: in vitro studies (reference 16); cited from earlier work
T1 sequence (Q16678 1-543): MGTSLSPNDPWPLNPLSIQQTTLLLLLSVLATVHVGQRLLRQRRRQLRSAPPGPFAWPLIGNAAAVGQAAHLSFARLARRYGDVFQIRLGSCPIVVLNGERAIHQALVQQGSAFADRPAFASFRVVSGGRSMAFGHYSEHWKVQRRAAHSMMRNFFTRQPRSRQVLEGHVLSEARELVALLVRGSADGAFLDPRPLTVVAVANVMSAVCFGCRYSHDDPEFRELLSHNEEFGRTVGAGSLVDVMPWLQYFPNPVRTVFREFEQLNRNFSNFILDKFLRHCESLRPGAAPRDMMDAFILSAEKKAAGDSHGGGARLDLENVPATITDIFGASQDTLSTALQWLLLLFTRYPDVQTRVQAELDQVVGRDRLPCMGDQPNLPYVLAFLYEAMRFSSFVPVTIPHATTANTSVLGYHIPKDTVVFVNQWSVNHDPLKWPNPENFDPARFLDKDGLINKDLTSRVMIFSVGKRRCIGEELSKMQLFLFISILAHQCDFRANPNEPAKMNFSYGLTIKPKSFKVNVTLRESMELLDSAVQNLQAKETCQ

[4] = tested on: androgen-independent prostate cancer (AIPC); assay: Survival by CYP1B1*3 genotype in men with AIPC treated with docetaxel (Kaplan-Meier); assay type: in vivo, human; conditions: for overall median survival: docetaxel 30 mg/m^2 1-hour i.v. weekly for 3 weeks, 1-week rest
Method: FIG. 1 depicts Kaplan-Meier curves of overall survival (o-CYP1B1*3; *-CYP1B1*1/*1 and CYP1B1*1/*3) (A) and overall progression free survival (B) in men with prostate cancer treated with docetaxel as a function of CYP1B1*3 genotype. All patients received docetaxel as a 1-hour intravenous infusion at a dose of 30 mg/m^2 in cycles of once every week for 3 consecutive weeks, followed by a 1-week rest period (n=25). DNA was extracted from a […] using a QiaBlood extraction kit (Qiagen, Valencia, Calif.) and stored at 4° C. The CYP1B1*3 alleles were analyzed by direct sequencing. The primers used for sequencing and amplification of the variant were as follows: F4-[…]; R4-[…]; F5-[…]; R5-[…]. A 50-μl reaction was prepared for polymerase chain reaction (PCR) amplification using primers F4 and R4. The reaction consisted of 1×PCR buffer, 2 mM of each of the four deoxynucleotidetriphosphates (dNTPs), 1.5 mM magnesium chloride, and 1 unit of Platinum Taq DNA polymerase. PCR conditions were: 94° C. for 5 minutes, followed by 40 cycles of 94° C. for 30 seconds, 66° C. for 30 seconds, and 72° C. for 30 seconds, with a final 7-minute cycle at 72° C. Direct nucleotide sequencing PCR was conducted using the Big Dye Terminator Cycle Sequencing Ready Reaction kit V1.1 on an ABI Prism 310 Genetic Analyzer (Applied BioSystems, Foster City, Calif.).
The CYP1B1 genotypes on germline DNA obtained from 25 men with AIPC treated with docetaxel (Aventis Pharmaceuticals, Bridgewater, N.J.) were retrospectively evaluated. The subjects were administered docetaxel intravenously over 1-hour at a dose of 30 mg/m^2 in whom detailed survival data were available (Table 1). Inclusion and exclusion criteria have been previously published (12). The study protocol was approved by the Institutional Review Board (Bethesda, Md.), and all patients provided written informed consent. DNA was isolated from whole blood and variants in the CYP1B1 gene were analyzed by direct nucleotide sequencing (see Legend to FIG. 1). The association between genotypes and progression-free survival and overall survival was determined by the Kaplan-Meier method using a two-tailed log rank test. The homozygous wild-type (CYP1B1*1/*1) and heterozygous variant (CYP1B1*1/*3) genotypes were pooled in the analysis on the basis of similarity of outcomes. The associated p-value was adjusted to be two times the unadjusted value to account for the two implicit comparisons made in determining the desirability of combining groups. Progression was censored at the off study date if a patient was removed for toxicity or another reason.

CYP1B1 [5] = molecular target: T1, CYP1B1; conditions: previous preclinical studies (references 2, 3); cited from earlier work

SMILES: CC(=O)O[C@@]12CO[C@@H]1C[C@H](O)[C@@]1(C)C(=O)[C@H](O)C3=C(C)[C@@H](OC(=O)[C@H](O)[C@@H](NC(=O)OC(C)(C)C)c4ccccc4)C[C@@](O)([C@@H](OC(=O)c4ccccc4)[C@H]21)C3(C)C [docetaxel]
- effect of CYP1B1 overexpression on cellular sensitivity to docetaxel [1]: docetaxel resistance
- clearance ([2]; patients homozygous for the variant allele, 95% CI 26.9 to 37.0 L/h): 533 mL/min
- clearance ([2]; patients homozygous or heterozygous for the wild-type allele, 95% CI 27.5 to 48.9 L/h): 637 mL/min
- metabolism by CYP1B1 (CYP1B1 [3]): not directly metabolized by CYP1B1
- overall median survival ([4]; 5 patients homozygote variant (CYP1B1*3/*3)): 7.5 months
- overall median survival ([4]; 7 wild type plus 13 heterozygotes (CYP1B1*1/*1 and *1/*3 pooled)): 15.3 months
- progression free survival ([4]; CYP1B1*3/*3 variant, P=0.13 versus pooled genotypes): 3.3 months
- decrease in median survival time ([4]; CYP1B1*3/*3 versus pooled wild type and heterozygotes, P=0.012): 7.8 months
- progression free survival ([4]; pooled wild type and heterozygous genotypes, P=0.13 versus CYP1B1*3/*3): 6.2 months
- inhibition of CYP1B1-mediated ethoxyresorufin O-deethylation (CYP1B1 [5]): competitively inhibits
